Biological target: T1, Receptor-interacting serine/threonine-protein kinase 1 (Homo sapiens, UniProt Q13546)
T1 sequence (Q13546 whole entry): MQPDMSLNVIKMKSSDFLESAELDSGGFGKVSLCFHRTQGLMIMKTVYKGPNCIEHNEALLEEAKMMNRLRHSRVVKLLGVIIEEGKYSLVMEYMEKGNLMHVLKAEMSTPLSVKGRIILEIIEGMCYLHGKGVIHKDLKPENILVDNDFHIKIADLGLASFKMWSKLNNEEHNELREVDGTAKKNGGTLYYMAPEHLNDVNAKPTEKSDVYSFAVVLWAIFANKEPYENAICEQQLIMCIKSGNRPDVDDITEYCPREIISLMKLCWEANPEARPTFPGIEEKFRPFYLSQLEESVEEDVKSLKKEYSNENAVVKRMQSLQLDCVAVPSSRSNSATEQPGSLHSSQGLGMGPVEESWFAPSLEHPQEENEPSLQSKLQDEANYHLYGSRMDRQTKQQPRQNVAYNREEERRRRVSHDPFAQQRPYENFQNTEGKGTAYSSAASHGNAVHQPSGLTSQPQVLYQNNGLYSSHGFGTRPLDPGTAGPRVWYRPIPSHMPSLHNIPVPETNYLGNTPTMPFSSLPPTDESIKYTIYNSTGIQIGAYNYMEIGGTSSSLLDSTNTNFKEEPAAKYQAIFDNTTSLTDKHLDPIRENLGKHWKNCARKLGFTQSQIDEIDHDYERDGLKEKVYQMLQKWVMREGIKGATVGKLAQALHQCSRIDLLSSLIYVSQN
Assay: RIPK1-ADP-Glo Enzymatic Assay
Experimental: In this assay, the potency (EC50) of each compound was determined from a ten-point (1:3 serial dilution: top compound concentration of 100000 nM) titration curve using the following outlined procedure. To each well of a white ProxiPlus 384 well-plate, 30 nL of compound (1% DMSO in final assay volume of 3 μL) was dispensed, followed by the addition of 2 μL of 1x assay buffer (25 mM Hepes 7.3, 20 mM MgCl2, 50 mM NaCl, 1 mM DTT, 0.005% Tween20, and 0.02% BSA) containing 37.5 nM of GST-RIPK1 (recombinant GST-RIPK1 kinase domain (residues 1-327) enzyme produced from baculovirus-transfected Sf21 cells: MW=62 kDa). Plates were placed in an ambient temperature humidified chamber for a 30 minutes pre-incubation with compound. Subsequently, each reaction was initiated by the addition of 1 μL 1× assay buffer containing 900 μM ATP and […]. The final reaction in each well of 3 μL consists of 25 nM of GST-RIPK1, 300 µM ATP, and 3 μM dephosphorylated-MBP. Kinase reactions were allowed to proceed for 150 minutes prior to adding ADP-Glo reagents per Promega's outlined kit protocol. Dose-response curves were generated by plotting percent effect (% product conversion: Y-axis) vs. Logio compound concentrations (X-axis).

EC50 [nM]	Compound
10	O=C1N2[C@H](c3cc(F)cc(F)c3)CCN2CC12CCN(c1cc(Cl)c(F)cn1)CC2 [US20240425524, Example 1.10]
17	Cc1csc2ncnc(N3CCC4(CC3)CN3CC[C@@H](c5cc(F)cc(F)c5)N3C4=O)c12 [US20240425524, Example 1.15]

— BindingDB's records for patent US20240425524 (Merck Sharp & Dohme, 2024)
